Source: publication PMC3827223, “Bioorthogonal Small Molecule Imaging Agents Allow Single-Cell Imaging of MET” (PLoS ONE, 2013)
One block for each compound: values may come before it.

What was measured:
[1] = system: MET phosphorylation (Y1234/1235) in OVCA429 cells; test: Western blot of HGF-stimulated MET phosphorylation in OVCA429 cells; type: cell-based, human; details: for effect on MET phosphorylation: OVCA429 cells, 0.1, 0.5 or 1 μM pre-treatment 1 hr, 100 ng/ml HGF stimulation, Western blot densitometry
Experimental: Cells were serum-starved in media containing 0.1% fetal bovine serum ~16 hrs before the assay. […] Phosphorylation was then stimulated with 100 ng/ml HGF diluted in RPMI with 1 mg/ml BSA for 5 min at 37°C. Cell lysates were then prepared and run on a gel as described above. Western blot analysis was performed as described above using the MET and phospho-MET primary antibodies (1:1000). Total MET and phospho-MET expression was quantified using densitometry (ImageJ).

recombinant human MET = recombinant human MET (Homo sapiens, UniProt P08581); test: z'-LYTE FRET kinase activity assay, MET
Experimental: (§1) The Tyr6 peptide kit was used to measure MET, RON, and AXL activity. The Tyr4 peptide kit was used for PDGFRα and the Tyr1 peptide kit was used to measure KDR activity. All assays were run in accordance with the manufacturer’s instructions, with minor modification. Briefly, MET, RON, and KDR were used at 0.2 μg/ml, 0.8 μg/ml, and 0.7 μg/ml, respectively. The kinase reaction buffer for MET, RON, and KDR was supplemented with 0.67% DMSO. AXL was used at 1.5 μg/ml and the reaction buffer was supplemented with 0.01% sodium azide and 0.67% DMSO. PDGFRα was used at 2.5 μg/ml and the reaction buffer was supplemented with 1mM DTT, 2mM MnCl2, and 0.67% DMSO. Inhibitors were prepared by 4-fold serial dilution at 75X the final concentration in 100% DMSO (8 μM to 0.1 nM). This stock was then diluted to 3X the final concentration in kinase reaction buffer. 5 μl of the 3X stock was added to the final 15 μl reaction volume. Both the z´-LYTE control phosho-peptide and the z´-LYTE peptide were used at a final concentration of 2 μM. […] Development reagent was then incubated for 1 hour at room temperature. […] IC50 values were obtained by fitting the dose-response curves using Prism 6 (GraphPad).

recombinant Human RON = recombinant Human RON (Homo sapiens, UniProt Q04912); test: z'-LYTE FRET kinase activity assay, RON
Experimental: as §1

recombinant human AXL = biological target: T1, recombinant human AXL (Homo sapiens, UniProt P30530); test: z'-LYTE FRET kinase activity assay, AXL
T1 sequence (P30530 26-894): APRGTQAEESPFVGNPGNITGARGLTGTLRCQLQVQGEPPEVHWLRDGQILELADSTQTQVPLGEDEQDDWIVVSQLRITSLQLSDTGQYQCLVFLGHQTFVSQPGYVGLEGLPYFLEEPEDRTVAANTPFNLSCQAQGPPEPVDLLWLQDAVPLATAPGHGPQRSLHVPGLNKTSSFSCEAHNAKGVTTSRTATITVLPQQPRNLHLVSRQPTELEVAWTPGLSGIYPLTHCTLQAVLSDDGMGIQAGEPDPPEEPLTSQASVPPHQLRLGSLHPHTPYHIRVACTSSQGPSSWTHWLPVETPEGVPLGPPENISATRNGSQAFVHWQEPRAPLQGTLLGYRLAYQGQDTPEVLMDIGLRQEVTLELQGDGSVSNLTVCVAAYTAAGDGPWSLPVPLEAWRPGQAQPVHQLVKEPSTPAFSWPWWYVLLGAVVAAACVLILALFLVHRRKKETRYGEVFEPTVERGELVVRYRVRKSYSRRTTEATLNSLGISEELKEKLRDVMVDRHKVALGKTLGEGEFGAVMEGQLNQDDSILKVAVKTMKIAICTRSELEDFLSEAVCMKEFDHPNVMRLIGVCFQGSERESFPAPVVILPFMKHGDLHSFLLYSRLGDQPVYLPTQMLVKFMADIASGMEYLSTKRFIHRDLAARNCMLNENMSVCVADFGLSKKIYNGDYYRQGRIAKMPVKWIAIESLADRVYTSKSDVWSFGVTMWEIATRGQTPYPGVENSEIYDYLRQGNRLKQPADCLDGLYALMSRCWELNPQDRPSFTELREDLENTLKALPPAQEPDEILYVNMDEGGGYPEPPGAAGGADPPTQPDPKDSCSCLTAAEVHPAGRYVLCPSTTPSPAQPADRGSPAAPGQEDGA
Experimental: as §1

recombinant Human KDR = recombinant Human KDR (Homo sapiens, UniProt P35968); test: z'-LYTE FRET kinase activity assay, KDR
Experimental: as §1

recombinant Human PDGFRα = recombinant Human PDGFRα (Homo sapiens, UniProt P16234); test: z'-LYTE FRET kinase activity assay, PDGFRα
Experimental: as §1

[2] = Foretinib-TCO (11) IC50 value divided by Foretinib IC50 value

Chain of recombinant human MET (P08581 25-1390): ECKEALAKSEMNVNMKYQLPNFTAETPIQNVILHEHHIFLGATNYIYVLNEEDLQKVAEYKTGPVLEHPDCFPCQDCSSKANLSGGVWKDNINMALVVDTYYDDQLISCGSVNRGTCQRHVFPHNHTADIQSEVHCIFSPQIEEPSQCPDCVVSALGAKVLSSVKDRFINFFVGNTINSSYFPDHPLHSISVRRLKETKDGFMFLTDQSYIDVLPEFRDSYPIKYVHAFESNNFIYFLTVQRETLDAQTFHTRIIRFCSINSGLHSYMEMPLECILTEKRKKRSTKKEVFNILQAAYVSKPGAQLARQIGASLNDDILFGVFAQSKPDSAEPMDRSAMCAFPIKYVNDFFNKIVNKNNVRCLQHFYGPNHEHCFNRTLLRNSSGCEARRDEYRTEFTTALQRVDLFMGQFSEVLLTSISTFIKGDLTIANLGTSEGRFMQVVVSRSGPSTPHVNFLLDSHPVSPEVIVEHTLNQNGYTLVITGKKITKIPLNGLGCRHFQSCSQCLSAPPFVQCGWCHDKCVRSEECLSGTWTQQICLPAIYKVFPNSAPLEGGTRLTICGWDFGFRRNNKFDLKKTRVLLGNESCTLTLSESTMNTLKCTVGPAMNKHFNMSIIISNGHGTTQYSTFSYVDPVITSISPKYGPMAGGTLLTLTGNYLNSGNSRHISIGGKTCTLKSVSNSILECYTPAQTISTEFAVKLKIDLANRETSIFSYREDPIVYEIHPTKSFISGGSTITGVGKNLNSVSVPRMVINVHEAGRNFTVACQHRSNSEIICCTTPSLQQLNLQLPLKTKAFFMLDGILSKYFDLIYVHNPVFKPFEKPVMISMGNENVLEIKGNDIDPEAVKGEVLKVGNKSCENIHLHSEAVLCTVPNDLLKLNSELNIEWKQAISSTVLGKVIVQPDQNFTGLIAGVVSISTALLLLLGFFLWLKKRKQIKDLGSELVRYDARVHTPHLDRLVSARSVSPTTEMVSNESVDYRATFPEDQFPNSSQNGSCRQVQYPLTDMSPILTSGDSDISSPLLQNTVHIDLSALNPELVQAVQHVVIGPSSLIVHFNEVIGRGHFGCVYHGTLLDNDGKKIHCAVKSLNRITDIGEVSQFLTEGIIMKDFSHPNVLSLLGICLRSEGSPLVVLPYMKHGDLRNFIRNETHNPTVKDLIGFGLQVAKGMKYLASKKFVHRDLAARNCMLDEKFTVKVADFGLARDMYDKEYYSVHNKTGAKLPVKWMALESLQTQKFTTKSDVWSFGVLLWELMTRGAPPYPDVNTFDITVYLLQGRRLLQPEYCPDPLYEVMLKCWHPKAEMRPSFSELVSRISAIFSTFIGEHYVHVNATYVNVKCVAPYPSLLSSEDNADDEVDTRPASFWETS
Chain of recombinant Human PDGFRα (P16234 24-1089): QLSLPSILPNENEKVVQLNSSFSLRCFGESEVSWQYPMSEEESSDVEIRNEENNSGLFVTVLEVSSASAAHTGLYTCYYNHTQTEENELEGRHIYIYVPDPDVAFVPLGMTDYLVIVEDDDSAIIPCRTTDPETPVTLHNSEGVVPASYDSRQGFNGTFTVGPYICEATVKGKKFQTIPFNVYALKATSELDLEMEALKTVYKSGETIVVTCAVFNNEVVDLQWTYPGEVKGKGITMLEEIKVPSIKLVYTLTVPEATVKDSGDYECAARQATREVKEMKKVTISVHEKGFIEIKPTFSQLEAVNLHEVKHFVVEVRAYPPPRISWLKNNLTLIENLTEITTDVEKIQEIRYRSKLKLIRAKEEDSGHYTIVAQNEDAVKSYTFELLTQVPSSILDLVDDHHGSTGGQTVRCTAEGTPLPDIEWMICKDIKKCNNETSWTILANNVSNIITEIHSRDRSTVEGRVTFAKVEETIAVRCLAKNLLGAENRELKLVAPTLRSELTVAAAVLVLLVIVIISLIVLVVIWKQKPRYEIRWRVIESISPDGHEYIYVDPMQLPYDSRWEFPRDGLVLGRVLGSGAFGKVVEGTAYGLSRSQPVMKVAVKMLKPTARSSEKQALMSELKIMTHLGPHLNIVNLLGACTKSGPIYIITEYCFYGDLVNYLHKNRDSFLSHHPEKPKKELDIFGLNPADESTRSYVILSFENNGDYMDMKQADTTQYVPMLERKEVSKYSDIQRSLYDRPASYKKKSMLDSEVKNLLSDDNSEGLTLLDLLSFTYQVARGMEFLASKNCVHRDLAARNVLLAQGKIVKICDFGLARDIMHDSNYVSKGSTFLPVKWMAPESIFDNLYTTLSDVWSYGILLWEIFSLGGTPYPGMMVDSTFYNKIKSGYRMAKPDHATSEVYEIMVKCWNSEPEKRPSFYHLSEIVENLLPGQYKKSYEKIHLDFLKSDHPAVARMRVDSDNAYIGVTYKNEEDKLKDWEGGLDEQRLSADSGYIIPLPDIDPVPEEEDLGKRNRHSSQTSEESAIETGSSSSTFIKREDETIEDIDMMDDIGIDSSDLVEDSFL
Chain of recombinant Human RON (Q04912 25-1400): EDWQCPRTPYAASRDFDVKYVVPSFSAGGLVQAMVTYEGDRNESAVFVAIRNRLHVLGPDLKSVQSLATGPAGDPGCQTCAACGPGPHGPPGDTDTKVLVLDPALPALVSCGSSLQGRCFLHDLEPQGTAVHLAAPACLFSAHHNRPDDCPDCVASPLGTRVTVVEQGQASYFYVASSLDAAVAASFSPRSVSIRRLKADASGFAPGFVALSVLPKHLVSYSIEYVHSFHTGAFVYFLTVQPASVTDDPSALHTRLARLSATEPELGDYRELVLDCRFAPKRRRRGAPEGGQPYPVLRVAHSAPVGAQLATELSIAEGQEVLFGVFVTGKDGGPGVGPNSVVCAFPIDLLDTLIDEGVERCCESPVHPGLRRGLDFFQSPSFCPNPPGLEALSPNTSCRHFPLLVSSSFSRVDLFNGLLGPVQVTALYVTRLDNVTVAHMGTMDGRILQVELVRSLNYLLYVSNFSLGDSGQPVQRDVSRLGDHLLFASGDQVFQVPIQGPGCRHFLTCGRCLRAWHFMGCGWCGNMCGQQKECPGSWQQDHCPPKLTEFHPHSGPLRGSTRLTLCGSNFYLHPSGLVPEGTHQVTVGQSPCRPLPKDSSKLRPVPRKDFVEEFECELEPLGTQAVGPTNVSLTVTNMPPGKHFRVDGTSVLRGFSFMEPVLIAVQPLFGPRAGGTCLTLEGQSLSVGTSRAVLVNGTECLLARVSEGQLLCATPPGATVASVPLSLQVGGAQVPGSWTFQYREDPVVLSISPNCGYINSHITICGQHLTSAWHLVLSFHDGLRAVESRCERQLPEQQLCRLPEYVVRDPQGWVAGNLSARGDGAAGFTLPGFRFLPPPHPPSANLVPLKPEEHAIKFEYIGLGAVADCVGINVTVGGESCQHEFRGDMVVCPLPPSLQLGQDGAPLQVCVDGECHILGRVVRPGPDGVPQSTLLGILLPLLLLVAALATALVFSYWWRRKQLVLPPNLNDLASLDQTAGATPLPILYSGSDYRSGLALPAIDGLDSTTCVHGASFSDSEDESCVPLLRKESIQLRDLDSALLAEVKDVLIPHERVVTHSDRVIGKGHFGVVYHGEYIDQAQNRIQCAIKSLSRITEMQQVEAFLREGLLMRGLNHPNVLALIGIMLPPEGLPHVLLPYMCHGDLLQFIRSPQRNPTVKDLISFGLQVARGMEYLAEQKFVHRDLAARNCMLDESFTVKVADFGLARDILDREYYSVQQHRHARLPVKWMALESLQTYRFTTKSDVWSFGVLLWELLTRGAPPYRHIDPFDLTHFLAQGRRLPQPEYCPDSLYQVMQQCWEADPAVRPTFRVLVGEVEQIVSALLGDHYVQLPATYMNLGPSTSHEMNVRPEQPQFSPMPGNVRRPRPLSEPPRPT
Chain of recombinant Human KDR (P35968 20-1356): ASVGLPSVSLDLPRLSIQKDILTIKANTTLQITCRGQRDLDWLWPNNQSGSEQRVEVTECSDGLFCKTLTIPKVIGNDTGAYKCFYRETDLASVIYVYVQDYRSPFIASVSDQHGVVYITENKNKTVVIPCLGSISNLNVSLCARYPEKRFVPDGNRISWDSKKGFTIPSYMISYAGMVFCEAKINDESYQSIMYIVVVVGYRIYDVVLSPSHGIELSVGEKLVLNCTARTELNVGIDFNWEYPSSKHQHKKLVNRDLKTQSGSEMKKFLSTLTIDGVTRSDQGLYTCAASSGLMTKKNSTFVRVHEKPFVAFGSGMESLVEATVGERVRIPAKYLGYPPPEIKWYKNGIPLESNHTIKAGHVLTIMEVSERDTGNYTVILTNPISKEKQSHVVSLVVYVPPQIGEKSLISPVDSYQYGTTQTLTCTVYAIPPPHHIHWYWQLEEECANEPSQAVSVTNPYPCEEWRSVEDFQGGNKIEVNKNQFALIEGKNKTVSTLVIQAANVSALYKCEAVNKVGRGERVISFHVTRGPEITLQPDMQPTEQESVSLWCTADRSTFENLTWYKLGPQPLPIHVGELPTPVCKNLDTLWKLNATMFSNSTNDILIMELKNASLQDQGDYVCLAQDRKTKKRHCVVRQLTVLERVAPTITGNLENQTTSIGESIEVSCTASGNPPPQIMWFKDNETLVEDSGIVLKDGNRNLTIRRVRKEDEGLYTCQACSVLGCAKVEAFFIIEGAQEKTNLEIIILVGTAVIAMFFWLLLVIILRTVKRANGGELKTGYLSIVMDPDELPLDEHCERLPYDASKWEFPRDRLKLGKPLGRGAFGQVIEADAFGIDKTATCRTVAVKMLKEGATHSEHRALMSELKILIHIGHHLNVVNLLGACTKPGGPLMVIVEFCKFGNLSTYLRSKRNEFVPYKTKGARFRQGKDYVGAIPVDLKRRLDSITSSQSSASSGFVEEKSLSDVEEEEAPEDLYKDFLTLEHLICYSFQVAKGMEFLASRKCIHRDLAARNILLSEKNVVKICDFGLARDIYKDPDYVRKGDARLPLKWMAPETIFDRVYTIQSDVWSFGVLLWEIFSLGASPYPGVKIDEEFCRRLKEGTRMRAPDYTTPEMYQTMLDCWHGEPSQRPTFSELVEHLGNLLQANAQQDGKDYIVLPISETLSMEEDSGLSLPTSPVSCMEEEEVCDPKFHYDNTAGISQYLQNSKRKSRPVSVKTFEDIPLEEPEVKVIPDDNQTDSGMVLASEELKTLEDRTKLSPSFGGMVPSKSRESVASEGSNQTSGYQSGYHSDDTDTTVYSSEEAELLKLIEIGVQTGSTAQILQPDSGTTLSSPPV

SMILES: COc1cc2c(Oc3ccc(NC(=O)C4(C(=O)Nc5ccc(F)cc5)CC4)cc3F)ccnc2cc1OCCCN1CCOCC1 [Foretinib, N1’-[3-fluoro-4-[[6-methoxy-7-(3-morpholinopropoxy)-4-quinolinyl]oxy]phenyl]-N1-(4-fluorophenyl)cyclopropane-1,1-dicarboxamide, reference compound]
effect on MET phosphorylation [1]: complete decrease in MET phosphorylation

IC50 (recombinant human MET): 697 nM
change of MET IC50 relative to Foretinib (loss in drug activity) (recombinant human MET; from 28.7 nM to 697.4 nM): over 24 fold
SMILES: COc1cc2c(Oc3ccc(NC(=O)C4(C(=O)Nc5ccc(F)cc5)CC4)cc3F)ccnc2cc1OCCCN1CCN(C(=O)CCc2ccc3n2[B-](F)(F)[N+]2=C(C)C=C(C)C2=C3)CC1 [Foretinib-BODIPY-FL, 5,5-difluoro-7-(3-(4-(3-((4-(2-fluoro-4-(1-((4-fluorophenyl)carbamoyl)cyclopropanecarboxamido)phenoxy)-6-methoxyquinolin-7-yl)oxy)propyl)piperazin-1-yl)-3-oxopropyl)-1,3-dimethyl-5H-dipyrrolo[1,2-c:2',1'-f][1,3,2]diazaborinin-4-ium-5-uide]
effect on MET phosphorylation [1]: decrease in MET phosphorylation

IC50 (recombinant human MET): 88.6 nM
Fold Change (TCO/Foretinib) MET (recombinant human MET; [2]): 3.1
IC50 (recombinant Human RON): 82.7 nM
Fold Change (TCO/Foretinib) RON (recombinant Human RON; [2]): 4.1
IC50 (recombinant human AXL): 72.5 nM
Fold Change (TCO/Foretinib) AXL (recombinant human AXL; [2]): 3.4
IC50 (recombinant Human KDR): 150 nM
Fold Change (TCO/Foretinib) KDR (recombinant Human KDR; [2]): 6.2
IC50 (recombinant Human PDGFRα): 265 nM
Fold Change (TCO/Foretinib) PDGFRα (recombinant Human PDGFRα; [2]): 4.5
SMILES: COc1cc2c(Oc3ccc(NC(=O)C4(C(=O)Nc5ccc(F)cc5)CC4)cc3F)ccnc2cc1OCCCN1CCN(C(=O)OC2CC/C=C/CCC2)CC1 (centres unmarked) [Foretinib-TCO, (E)-cyclooct-4-en-1-yl 4-(3-((4-(2-fluoro-4-(1-((4-fluorophenyl)carbamoyl)cyclopropanecarboxamido)phenoxy)-6-methoxyquinolin-7-yl)oxy)propyl)piperazine-1-carboxylate]
effect on MET phosphorylation [1]: decrease in MET phosphorylation
potency in decreasing MET phosphorylation compared with the BODIPY-FL (12) version ([1]; OVCA429 cells, 0.1-1 μM, HGF stimulation, Western blot): greater potency

IC50 (recombinant human MET): 1.48 nM
SMILES: O=C(NCCn1cc(-c2cnc3nnn(Cc4ccc5ncccc5c4)c3n2)cn1)OC1CC/C=C/CCC1 (centres unmarked) [PF04217903-TCO, (E)-cyclooct-4-en-1-yl (2-(4-(1-(quinolin-6-ylmethyl)-1H-[1,2,3]triazolo[4,5-b]pyrazin-6-yl)-1H-pyrazol-1-yl)ethyl)carbamate]
